Results from patent US20240083998A1, “PREVENTION AND TREATMENT OF STEROID-RESISTANT OR GUT GRAFT-VERSUS-HOST DISEASE (GVHD)” (CIY OF HOPE, priority 2021, published 2024).

System: BALB/c recipients
Experimental: Splenocytes and T cell depleted bone marrow cells from donors were injected via tail vein into recipients 6-8 hours after irradiation. […] Depletion of T cells from the bone marrow was accomplished by using biotin-conjugated anti-CD4 and anti-CD8 mAbs, and streptavidin Microbeads (Miltenyi Biotec, Germany), followed by passage through an autoMACS Pro cell sorter (Miltenyi Biotec, Germany). Microbeads (Ly-2, Miltenyi Biotec, Germany) were used for to purify CD8^+T cell, and purity was>99%. The assessment and scoring of clinical signs of GVHD have been described in previous publications^60.
ELISA: Reg3γ(antibodies online), ST2 (R&D system) and sTNFR1 (Thermo Scientific) in serum were measured by enzyme-linked immune sorbent assay (ELISA) according to manufacturer's protocol. Serum was collected and spun down at 2000 rpm for 10 min at 4° C. Clear supernatant was collected and stored at −20° C. until ELISA analysis. […]
Histological analysis: Tissue specimens were fixed in formalin before embedding in paraffin blocks, sectioned and stained with H&E. Slides were examined at 100× or 200× magnification and visualized with a Zeiss Observer II. […] For Paneth cell quantification, a total of 9 pictures from 3 different locations of the H&E-stained slides from one mouse were taken under 200× magnification, and total Paneth cell and crypt numbers were counted, Paneth cell numbers per crypt are shown. […]

C[C@@H]1C[C@H]2[C@@H]3CCC4=CC(=O)C=C[C@]4(C)[C@@]3(F)[C@@H](O)C[C@]2(C)[C@@]1(O)C(=O)CO [DEX, Dexamethasone]
IL-17A+IL-22−CD4+Th17 and IL-17A+IL-22−CD8+Tc17 cells among CD4+ and CD8+T cells (recipients treated with DEX, 7 days after HCT): 1-5%
survival after HCT (single injection 5 mg/Kg on day 3 (1-DEX), mild clinical GVHD): up to 20 days
